Columns and labels:
[1] = target: heparin sulfate proteoglycans (HSPG); conditions: HSPG on the cell surface and extracellular matrix; read-out: Kd, low affinity binding site; cited from earlier work
c-Met receptor = c-Met receptor (Homo sapiens, UniProt P08581); conditions: read-out: Kd, high affinity binding site; cited from earlier work
[2] = test system: IM95m human gastric tumor xenograft; test: Human gastric cancer IM95m tumor xenograft model; format: in vivo, mouse; conditions: SCID mice, s.c. IM95m; day 53 to day 81; HuL2G7 10 mg/kg i.v. once-weekly, erlotinib 25 mg/kg p.o. once-daily days 53-80, or both
Description: FIG. 1. (A) Combination effects of humanized L2G7 (HuL2G7) and erlotinib in gastric cancer (tumor) IM95m xenograft model. Treatment was started from 53 days after inoculation. Mice treated with relevant vehicles (i.v. and/or p.o.), HuL2G7 (10 mg/kg/week, i.v., on days 53, 60, 67, and 74), erlotinib (25 mg/kg, p.o., qd×28 doses) or the combined regimen for 28 days. Data represents mean±SD (n=6). *p≦0.025 by one-tailed Dunnett's test (v.s. vehicle). (B) Comparison of differential tumor volumes of the mice group treated with HuL2G7, erlotinib, and a combination of the two. Tumor volume of each mouse on days 53 was subtracted from the volume on days 81. Data represents mean±SD (n=6). # p≦0.05 by Wilcoxon signed-rank test (v.s. combo).

[3] = test system: KP-4 human pancreatic tumor xenograft; conditions: 40 mg/kg
Description: Sunitinib was administered orally and once-daily at a dose of 40 mg/kg on days 11-25 as its 0.5% methyl cellulose suspension. Administration volume was 10 mL/kg.

Sequence of c-Met receptor (P08581 25-1390): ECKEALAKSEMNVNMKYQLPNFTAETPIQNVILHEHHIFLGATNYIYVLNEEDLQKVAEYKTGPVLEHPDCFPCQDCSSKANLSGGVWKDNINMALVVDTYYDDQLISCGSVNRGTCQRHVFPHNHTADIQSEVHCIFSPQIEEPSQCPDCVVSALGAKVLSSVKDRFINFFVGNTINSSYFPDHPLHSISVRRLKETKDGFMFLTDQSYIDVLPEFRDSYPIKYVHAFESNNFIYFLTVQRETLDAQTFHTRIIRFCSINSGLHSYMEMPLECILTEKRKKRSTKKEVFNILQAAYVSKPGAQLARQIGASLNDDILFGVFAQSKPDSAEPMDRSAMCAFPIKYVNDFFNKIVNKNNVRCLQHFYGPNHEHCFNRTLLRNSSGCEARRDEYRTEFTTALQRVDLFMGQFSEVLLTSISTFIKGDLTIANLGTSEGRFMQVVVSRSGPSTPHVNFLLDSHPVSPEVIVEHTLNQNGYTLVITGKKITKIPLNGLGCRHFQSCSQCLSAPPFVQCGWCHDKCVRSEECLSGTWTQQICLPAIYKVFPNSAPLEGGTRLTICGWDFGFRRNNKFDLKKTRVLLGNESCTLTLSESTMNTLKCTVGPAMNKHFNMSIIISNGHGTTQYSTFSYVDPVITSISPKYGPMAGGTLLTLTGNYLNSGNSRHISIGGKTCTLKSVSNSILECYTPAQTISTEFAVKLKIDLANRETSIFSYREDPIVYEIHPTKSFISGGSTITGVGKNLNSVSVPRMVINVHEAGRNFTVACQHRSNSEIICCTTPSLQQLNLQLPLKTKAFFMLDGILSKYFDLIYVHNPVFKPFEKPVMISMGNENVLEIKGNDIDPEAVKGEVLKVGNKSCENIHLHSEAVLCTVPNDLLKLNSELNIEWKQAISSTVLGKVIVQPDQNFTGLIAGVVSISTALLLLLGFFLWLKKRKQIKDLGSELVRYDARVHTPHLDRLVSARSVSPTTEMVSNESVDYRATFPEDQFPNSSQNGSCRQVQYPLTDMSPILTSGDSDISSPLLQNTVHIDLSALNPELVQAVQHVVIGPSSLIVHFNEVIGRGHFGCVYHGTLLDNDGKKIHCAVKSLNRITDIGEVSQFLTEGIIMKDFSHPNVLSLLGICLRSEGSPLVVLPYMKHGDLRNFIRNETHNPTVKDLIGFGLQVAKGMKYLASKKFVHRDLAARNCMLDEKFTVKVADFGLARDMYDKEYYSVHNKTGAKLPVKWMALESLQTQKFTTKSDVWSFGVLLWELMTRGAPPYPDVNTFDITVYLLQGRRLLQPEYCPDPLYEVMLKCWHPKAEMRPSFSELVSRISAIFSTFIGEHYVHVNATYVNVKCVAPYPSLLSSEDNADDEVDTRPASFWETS

HGF: multifunctional heterodimeric polypeptide, 102 kDa, ligand of c-Met
Kd [1]: 1 nM | Kd (c-Met receptor): 0.2 nM

C#Cc1cccc(Nc2ncnc3cc(OCCOC)c(OCCOC)cc23)c1 [erlotinib]
T/C (%) = ΔT/ΔC×100, change in tumor volume [2]: 45%

CCN(CC)CCNC(=O)c1c(C)[nH]c(/C=C2\C(=O)Nc3ccc(F)cc32)c1C [sunitinib]
T/C (%) = ΔT/ΔC×100, change in tumor volume [3]: 48%
